Experimental data reported in article PMC4589357, “The Role of Electrostatic Interactions in Binding of Histone H3K4me2/3 to the Sgf29 Tandem Tudor Domain” (PLoS ONE, 2015).
Positions count from the first letter of the chain named. Values joined by “and” are separate entries in the source; they are usually repeats but may differ in a detail not shown here. Identical values can stand only once. No end group written: not given here. Me3 = trimethyl (on lysine, trimethyllysine)

Key:
[1] = target: T1, Sgf29 D266N (Homo sapiens, UniProt Q96ES7, D266N); experiment: ITC binding of histone peptides to Sgf29 D266N
T1 construct: 6xHis (cleaved yes); made in house; host or cells: E. coli Rosetta BL21 DE3 PlysS
T1 sequence (Q96ES7 115-293 D266N): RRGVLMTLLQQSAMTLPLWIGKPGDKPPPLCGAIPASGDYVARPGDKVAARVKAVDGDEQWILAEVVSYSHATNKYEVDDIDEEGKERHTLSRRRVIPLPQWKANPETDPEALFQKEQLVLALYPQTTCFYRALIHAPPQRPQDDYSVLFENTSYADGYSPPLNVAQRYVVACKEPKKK

[2] = target: T2, Sgf29 D266E (Homo sapiens, UniProt Q96ES7, D266E); experiment: ITC binding of histone peptides to Sgf29 D266E
T2 construct: 6xHis (cleaved yes); made in house; host or cells: E. coli Rosetta BL21 DE3 PlysS
T2 sequence (Q96ES7 115-293 D266E): T1 sequence (Q96ES7 115-293 D266N) with N152E

[3] = target: T3, Sgf29 D266A (Homo sapiens, UniProt Q96ES7, D266A); experiment: ITC binding of histone peptides to Sgf29 D266A
T3 construct: 6xHis (cleaved yes); made in house; host or cells: E. coli Rosetta BL21 DE3 PlysS
T3 sequence (Q96ES7 115-293 D266A): T1 sequence (Q96ES7 115-293 D266N) with N152A

[4] = target: T4, Sgf29 Y245F (Homo sapiens, UniProt Q96ES7, Y245F); experiment: ITC binding of histone peptides to Sgf29 Y245F
T4 construct: 6xHis (cleaved yes); made in house; host or cells: E. coli Rosetta BL21 DE3 PlysS
T4 sequence (Q96ES7 115-293 Y245F): T1 sequence (Q96ES7 115-293 D266N) with Y131F, N152D

[5] = target: T5, tandem tudor domain of Sgf29, WT (Homo sapiens, UniProt Q96ES7); experiment: ITC binding of histone peptides to WT Sgf29
T5 construct: 6xHis (cleaved yes); made in house; host or cells: E. coli Rosetta BL21 DE3 PlysS
T5 sequence (Q96ES7 115-293): T1 sequence (Q96ES7 115-293 D266N) with N152D

[6] = target: T6, Sgf29 Y238F (Homo sapiens, UniProt Q96ES7, Y238F); experiment: ITC binding of histone peptides to Sgf29 Y238F
T6 construct: 6xHis (cleaved yes); made in house; host or cells: E. coli Rosetta BL21 DE3 PlysS
T6 sequence (Q96ES7 115-293 Y238F): T1 sequence (Q96ES7 115-293 D266N) with Y124F, N152D

[7] = target: T7, Sgf29 D266W (Homo sapiens, UniProt Q96ES7, D266W); experiment: ITC binding of histone peptides to Sgf29 D266W
T7 construct: 6xHis (cleaved yes); made in house; host or cells: E. coli Rosetta BL21 DE3 PlysS
T7 sequence (Q96ES7 115-293 D266W): T1 sequence (Q96ES7 115-293 D266N) with N152W

[8] = target: T8, Sgf29 D266Y (Homo sapiens, UniProt Q96ES7, D266Y); experiment: ITC binding of histone peptides to Sgf29 D266Y
T8 construct: 6xHis (cleaved yes); made in house; host or cells: E. coli Rosetta BL21 DE3 PlysS
T8 sequence (Q96ES7 115-293 D266Y): T1 sequence (Q96ES7 115-293 D266N) with N152Y

[9] = target: T9, Sgf29 D266F (Homo sapiens, UniProt Q96ES7, D266F); experiment: ITC binding of histone peptides to Sgf29 D266F
T9 construct: 6xHis (cleaved yes); made in house; host or cells: E. coli Rosetta BL21 DE3 PlysS
T9 sequence (Q96ES7 115-293 D266F): T1 sequence (Q96ES7 115-293 D266N) with N152F

[10] = target: T10, Wild-type Sgf29 (SAGA-associated Factor 29) tandem tudor domain, residues 115-293 (human, UniProt Q96ES7 115-293); experiment: ITC; peptide (generally 1.2 mM) titrated to protein (100 uM); for variants of low affinity 2.4 mM peptide to 200 uM protein; 25 mM TRIS pH 8.0, 50 mM NaCl, 1 mM DTT; one-site model; conditions: both partners purified
T10 construct: also called WT Sgf29; WT; source: E. coli Rosetta BL21 DE3 PlysS, purified (Ni-NTA, TEV cleavage, SEC Superdex 75)
T10 sequence (looked up): T1 sequence (Q96ES7 115-293 D266N) with N152D

[11] = target: T11, Sgf29 D266F variant, residues 115-293 (human, UniProt Q96ES7 115-293, D266F); experiment: as above; conditions: both partners purified
T11 construct: source: E. coli Rosetta BL21 DE3 PlysS, purified (Ni-NTA, TEV cleavage, SEC Superdex 75)
T11 sequence (looked up): T1 sequence (Q96ES7 115-293 D266N) with N152F

[12] = target: T12, Sgf29 D266Y variant, residues 115-293 (human, UniProt Q96ES7 115-293, D266Y); experiment: as above; conditions: both partners purified
T12 construct: source: E. coli Rosetta BL21 DE3 PlysS, purified (Ni-NTA, TEV cleavage, SEC Superdex 75)
T12 sequence (looked up): T1 sequence (Q96ES7 115-293 D266N) with N152Y

[13] = target: T13, Sgf29 D266E variant, residues 115-293 (human, UniProt Q96ES7 115-293, D266E); experiment: as above; conditions: both partners purified
T13 construct: source: E. coli Rosetta BL21 DE3 PlysS, purified (Ni-NTA, TEV cleavage, SEC Superdex 75)
T13 sequence (looked up): T1 sequence (Q96ES7 115-293 D266N) with N152E

[14] = target: T14, Sgf29 Y238F variant, residues 115-293 (human, UniProt Q96ES7 115-293, Y238F); experiment: as above; conditions: both partners purified
T14 construct: source: E. coli Rosetta BL21 DE3 PlysS, purified (Ni-NTA, TEV cleavage, SEC Superdex 75)
T14 sequence (looked up): T1 sequence (Q96ES7 115-293 D266N) with Y124F, N152D

[15] = target: T15, Sgf29 D266N variant, residues 115-293 (human, UniProt Q96ES7 115-293, D266N); experiment: as above; conditions: both partners purified
T15 construct: source: E. coli Rosetta BL21 DE3 PlysS, purified (Ni-NTA, TEV cleavage, SEC Superdex 75)
T15 sequence (looked up): T1 sequence (Q96ES7 115-293 D266N)

[16] = target: T16, Sgf29 D266W variant, residues 115-293 (human, UniProt Q96ES7 115-293, D266W); experiment: as above; conditions: both partners purified
T16 construct: source: E. coli Rosetta BL21 DE3 PlysS, purified (Ni-NTA, TEV cleavage, SEC Superdex 75)
T16 sequence (looked up): T1 sequence (Q96ES7 115-293 D266N) with N152W

[17] = target: T17, Sgf29 Y245F variant, residues 115-293 (human, UniProt Q96ES7 115-293, Y245F); experiment: as above; conditions: both partners purified
T17 construct: source: E. coli Rosetta BL21 DE3 PlysS, purified (Ni-NTA, TEV cleavage, SEC Superdex 75)
T17 sequence (looked up): T1 sequence (Q96ES7 115-293 D266N) with Y131F, N152D

[18] = target: T18, Sgf29 D266A variant, residues 115-293 (human, UniProt Q96ES7 115-293, D266A); experiment: as above; conditions: both partners purified
T18 construct: source: E. coli Rosetta BL21 DE3 PlysS, purified (Ni-NTA, TEV cleavage, SEC Superdex 75)
T18 sequence (looked up): T1 sequence (Q96ES7 115-293 D266N) with N152A

[19] = D266N, TRIS pH 8.0, ± SD (2–4 repeats)
[20] = D266E, TRIS pH 8.0, ± SD (2–4 repeats)
[21] = D266A, TRIS pH 8.0, ± SD (2–4 repeats)
[22] = Y245F, TRIS pH 8.0, ± SD (2–4 repeats)
[23] = WT Sgf29, TRIS pH 8.0, ± SD (2–4 repeats)
[24] = Y238F, TRIS pH 8.0, ± SD (2–4 repeats)
[25] = D266Y, TRIS pH 8.0, ± SD (2–4 repeats)
[26] = D266F, TRIS pH 8.0, ± SD (2–4 repeats)

C[C@H](N)C(=O)N[C@@H](CCCNC(=N)N)C(=O)N[C@H](C(=O)N[C@@H](CCCC[N+](C)(C)C)C(=O)N[C@@H](CCC(N)=O)C(=O)N[C@H](C(=O)N[C@@H](C)C(=O)N[C@@H](CCCNC(=N)N)C(=O)N[C@@H](CCCCN)C(=O)N[C@@H](CO)C(N)=O)[C@@H](C)O)[C@@H](C)O [H3K4me3]
decrease in binding affinity ([1]; D266N relative to WT Sgf29): 8 fold
increase in entropy / -TΔS° ([1]; D266N relative to WT Sgf29): 0.7 kcal/mol
-TΔS° [1, 19]: -0.1 ± 0.1 kcal/mol
ΔG° [1, 19]: -6.3 kcal/mol and -6.3 ± 0.1 kcal/mol
ΔH° [1, 19]: -6.2 ± 0.1 kcal/mol
binding affinity (in words) ([2]; D266E relative to WT Sgf29): virtually indistinguishable binding affinities
-TΔS° [2, 20]: 1.6 ± 0.1 kcal/mol
ΔG° [2, 20]: -7.4 ± 0.1 kcal/mol
ΔH° [2, 20]: -9.0 ± 0.1 kcal/mol
more unfavorable ΔH° (difference) ([3]; D266A relative to WT Sgf29): 1.7 kcal/mol
reduction in binding affinity ([3]; D266A relative to WT Sgf29): 8 fold
-TΔS° [3, 21]: 0.1 ± 0.1 kcal/mol
ΔG° [3, 21]: -6.3 ± 0.1 kcal/mol
ΔH° [3, 21]: -6.4 ± 0.1 kcal/mol
reduced binding affinity ([4]; Y245F relative to WT Sgf29): 4.5 fold
-TΔS° [4, 22]: -0.7 ± 0.1 kcal/mol
ΔG° [4, 22]: -6.6 ± 0.1 kcal/mol
ΔH° [4, 22]: -5.9 ± 0.1 kcal/mol
-TΔS° less favorable relative to Sgf29-H3K4me2, by ([5]; H3K4me3 vs H3K4me2, WT Sgf29): 0.7 kcal/mol
ΔH° more favorable relative to Sgf29-H3K4me2, by ([5]; H3K4me3 vs H3K4me2, WT Sgf29): 0.9 kcal/mol
-TΔS° [5, 23]: 0.6 kcal/mol and 0.6 ± 0.2 kcal/mol
ΔG° [5, 23]: -7.5 ± 0.1 kcal/mol
ΔH° [5, 23]: -8.1 kcal/mol and -8.1 ± 0.2 kcal/mol
thermodynamic profile (in words) ([6]; Y238F variants with altered or similar CD spectra, compared to WT Sgf29): indistinguishable thermodynamic profiles
-TΔS° [6, 24]: 0.7 ± 0.1 kcal/mol
ΔG° [6, 24]: -7.4 ± 0.1 kcal/mol
ΔH° [6, 24]: -8.1 ± 0.1 kcal/mol
binding (in words) [7]: abrogated
decrease in enthalpy ([8]; D266Y relative to WT Sgf29): 3.3 kcal/mol
increase in entropy ([8]; D266Y relative to WT Sgf29): about 2.1 kcal mol^-1
-TΔS° [8, 25]: -1.4 ± 0.3 kcal/mol
ΔG° [8, 25]: -6.2 ± 0.1 kcal/mol
ΔH° [8, 25]: -4.8 ± 0.2 kcal/mol
decrease in ΔH° ([9]; D266F relative to WT Sgf29): 4.6 kcal/mol
more favorable -TΔS° (difference) ([9]; D266F relative to WT Sgf29): 3.1 kcal/mol
reduction in binding affinity ([9]; D266F relative to WT Sgf29): 14 fold
-TΔS° [9, 26]: -2.5 ± 0.1 kcal/mol
ΔG° [9, 26]: -5.9 ± 0.1 kcal/mol
ΔH° [9, 26]: -3.4 ± 0.2 kcal/mol

B1: 10-mer histone 3 peptide H3K4me3 (ARTKme3QTARKS) (peptide)
peptide: ARTK(Me3)QTARKS-OH
notes: histone H3 N-terminal tail, 10-mer, K4 trimethylated; also called native 10-mer peptide; source: synthetic peptide (manual Fmoc solid-phase synthesis, preparative HPLC)
Kd [10]: 3.1 µM
dH [10]: -8.1 kcal/mol
Kd [11]: 44 µM
dH [11]: -3.4 kcal/mol
Kd [12]: 28 µM
dH [12]: -4.8 kcal/mol
Kd [13]: 3.9 µM
dH [13]: -9 kcal/mol
Kd [14]: 3.5 µM
dH [14]: -8.1 kcal/mol
Kd [15]: 25 µM
dH [15]: -6.2 kcal/mol
Kd [16]: > 200 µM
Kd [17]: 14 µM
dH [17]: -5.9 kcal/mol
Kd [18]: 25 µM
dH [18]: -6.4 kcal/mol
